{"source": "patent US9302999B2", "about": "“Substituted triazoles as herbicides” (E. I. DU PONT DE NEMOURS AND COMPANY, priority 2012, dated 2016)", "type_in_all_cases": "in vivo", "key": {"[1]": {"test_system": "foxtail, green (green foxtail, Setaria viridis)", "assay": "Test C pre-/postemergence: foxtail, green", "in_short": "(§1)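 Preemergence on seeds in loam/sand, postemergence on 2–18 cm (1–4-leaf) plants in peat-based medium; compounds in non-phytotoxic solvent with surfactant. After 13–15 days in greenhouse, visual rating versus controls, 0 (no effect) to 100 (complete control).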"}, "[2]": {"test_system": "barley (winter barley, Hordeum vulgare)", "assay": "Test C postemergence: barley", "in_short": "(§2)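 Greenhouse pot test; foliar postemergence treatment at 1- to 4-leaf stage. Rated visually at 13 to 15 days on a 0–100 control scale relative to untreated plants.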"}, "[3]": {"test_system": "canarygrass (Phalaris minor)", "assay": "Test C postemergence: canarygrass", "in_short": "as §2"}, "[4]": {"test_system": "cocklebur (common cocklebur, Xanthium strumarium)", "assay": "Test C pre-/postemergence: cocklebur", "in_short": "as §1"}, "[5]": {"test_system": "bromegrass, downy (downy bromegrass, Bromus tectorum)", "assay": "Test C pre-/postemergence: bromegrass, downy", "in_short": "as §1"}, "[6]": {"test_system": "common (oilseed) sunflower (Helianthus annuus)", "assay": "Test C pre-/postemergence: sunflower", "settings": "Preemergence", "in_short": "as §1"}, "[7]": {"test_system": "nightshade (eastern black nightshade, Solanum ptycanthum)", "assay": "Test C pre-/postemergence: nightshade", "settings": "Preemergence", "in_short": "as §1"}, "[8]": {"test_system": "goosegrass (Eleusine indica)", "assay": "Test C pre-/postemergence: goosegrass", "in_short": "as §1"}, "[9]": {"test_system": "windgrass (Apera spica-venti)", "assay": "Test C postemergence: windgrass", "in_short": "as §2"}, "[10]": {"settings": "Postemergence, 31 g ai/ha, scale 0 to 100 (0 no effect, 100 complete control)"}, "[11]": {"settings": "Postemergence, 62 g ai/ha, scale 0 to 100 (0 no effect, 100 complete control)"}, "[12]": {"settings": "Postemergence, 125 g ai/ha, scale 0 to 100, 0 no effect, 100 complete control"}, "[13]": {"settings": "Postemergence, 250 g ai/ha, scale 0 to 100"}, "[14]": {"settings": "Preemergence, 31 g ai/ha, scale of 0 to 100, 0 is no effect, 100 is complete control"}, "[15]": {"settings": "Preemergence, 62 g ai/ha, scale of 0 to 100, 0 is no effect, 100 is complete control"}, "[16]": {"settings": "Preemergence, 125 g ai/ha, scale 0 to 100, 0 no effect, 100 complete control"}, "[17]": {"settings": "Preemergence, 250 g ai/ha, scale 0 to 100, 0 no effect, 100 complete control"}, "[18]": {"settings": "31 g ai/ha, scale 0 to 100 (0 no effect, 100 complete control)"}, "[19]": {"settings": "62 g ai/ha, scale 0 to 100 (0 no effect, 100 complete control)"}, "[20]": {"settings": "125 g ai/ha, scale 0 to 100, 0 no effect, 100 complete control"}, "[21]": {"settings": "Preemergence, 62 g ai/ha, scale 0 to 100, 0 no effect, 100 complete control"}, "[22]": {"settings": "31 g ai/ha, scale of 0 to 100, 0 is no effect, 100 is complete control"}, "[23]": {"settings": "250 g ai/ha, scale 0 to 100, 0 no effect, 100 complete control"}, "[24]": {"settings": "62 g ai/ha, scale of 0 to 100, 0 is no effect, 100 is complete control"}}}
{"smiles": "FC(F)Oc1nn(-c2ccc(C(F)(F)F)cc2)nc1Cc1ccnc(C(F)(F)F)c1", "note": "[Compound 26]", "values": [{"measurement": "Plant response rating, Foxtail, Green", "setting": "[1]; [10]", "result": 30}, {"measurement": "Plant response rating, Foxtail, Green", "setting": "[1]; [11]", "result": 40}, {"measurement": "Plant response rating, Foxtail, Green", "setting": "[1]; [12]", "result": 70}, {"measurement": "Plant response rating, Foxtail, Green", "setting": "[1]; [13]", "result": 85}, {"measurement": "Plant response rating, Foxtail, Green", "setting": "[1]; [14]", "result": 85}, {"measurement": "Plant response rating, Foxtail, Green", "setting": "[1]; [15]", "result": 95}, {"measurement": "Plant response rating, Foxtail, Green", "setting": "[1]; [16]", "result": 95}, {"measurement": "Plant response rating, Foxtail, Green", "setting": "[1]; [17]", "result": 95}, {"measurement": "Plant response rating, Barley", "setting": "[2]; [18]", "result": 20}, {"measurement": "Plant response rating, Barley", "setting": "[2]; [19]", "result": 30}, {"measurement": "Plant response rating, Barley", "setting": "[2]; [20]", "result": 30}, {"measurement": "Plant response rating, Barley", "setting": "[2]; 250 g ai/ha, scale 0 to 100", "result": 40}, {"measurement": "Plant response rating, Canarygrass", "setting": "[3]; [18]", "result": 40}, {"measurement": "Plant response rating, Canarygrass", "setting": "[3]; [19]", "result": 45}, {"measurement": "Plant response rating, Canarygrass", "setting": "[3]; [20]", "result": 90}, {"measurement": "Plant response rating, Canarygrass", "setting": "[3]; 250 g ai/ha, scale 0 to 100", "result": 90}, {"measurement": "Plant response rating, Cocklebur", "setting": "[4]; [10]", "result": 10}, {"measurement": "Plant response rating, Cocklebur", "setting": "[4]; [11]", "result": 15}, {"measurement": "Plant response rating, Cocklebur", "setting": "[4]; [12]", "result": 55}, {"measurement": "Plant response rating, Cocklebur", "setting": "[4]; [13]", "result": 65}, {"measurement": "Plant response rating, Cocklebur", "setting": "[4]; [14]", "result": 0}, {"measurement": "Plant response rating, Cocklebur", "setting": "[4]; [21]", "result": 5}, {"measurement": "Plant response rating, Cocklebur", "setting": "[4]; [16]", "result": 15}, {"measurement": "Plant response rating, Cocklebur", "setting": "[4]; [17]", "result": 55}, {"measurement": "Plant response rating, Bromegrass, Downy", "setting": "[5]; [10]", "result": 15}, {"measurement": "Plant response rating, Bromegrass, Downy", "setting": "[5]; [11]", "result": 30}, {"measurement": "Plant response rating, Bromegrass, Downy", "setting": "[5]; [12]", "result": 40}, {"measurement": "Plant response rating, Bromegrass, Downy", "setting": "[5]; [13]", "result": 50}, {"measurement": "Plant response rating, Bromegrass, Downy", "setting": "[5]; [14]", "result": 5}, {"measurement": "Plant response rating, Bromegrass, Downy", "setting": "[5]; [21]", "result": 45}, {"measurement": "Plant response rating, Bromegrass, Downy", "setting": "[5]; [16]", "result": 50}, {"measurement": "Plant response rating, Bromegrass, Downy", "setting": "[5]; [17]", "result": 85}, {"measurement": "Plant response rating, Sunflower", "setting": "[6]; [22]", "result": 0}, {"measurement": "Plant response rating, Sunflower", "setting": "[6]; [20]", "result": 10}, {"measurement": "Plant response rating, Sunflower", "setting": "[6]; [23]", "result": 15}, {"measurement": "Plant response rating, Nightshade", "setting": "[7]; [22]", "result": 55}, {"measurement": "Plant response rating, Nightshade", "setting": "[7]; [24]", "result": 90}, {"measurement": "Plant response rating, Nightshade", "setting": "[7]; [20]", "result": 98}, {"measurement": "Plant response rating, Nightshade", "setting": "[7]; [23]", "result": 98}, {"measurement": "Plant response rating, Goosegrass", "setting": "[8]; [10]", "result": 25}, {"measurement": "Plant response rating, Goosegrass", "setting": "[8]; [11]", "result": 30}, {"measurement": "Plant response rating, Goosegrass", "setting": "[8]; [12]", "result": 40}, {"measurement": "Plant response rating, Goosegrass", "setting": "[8]; [13]", "result": 70}, {"measurement": "Plant response rating, Goosegrass", "setting": "[8]; [14]", "result": 95}, {"measurement": "Plant response rating, Goosegrass", "setting": "[8]; [15]", "result": 100}, {"measurement": "Plant response rating, Goosegrass", "setting": "[8]; [16]", "result": 100}, {"measurement": "Plant response rating, Goosegrass", "setting": "[8]; [17]", "result": 100}, {"measurement": "Plant response rating, Windgrass", "setting": "[9]; [18]", "result": 40}, {"measurement": "Plant response rating, Windgrass", "setting": "[9]; [19]", "result": 55}, {"measurement": "Plant response rating, Windgrass", "setting": "[9]; [20]", "result": 80}, {"measurement": "Plant response rating, Windgrass", "setting": "[9]; 250 g ai/ha, scale 0 to 100", "result": 80}]}
{"smiles": "Cc1nn(-c2ccc(C(F)(F)F)cn2)nc1Cc1cccc(C(F)(F)F)c1", "note": "[Compound 106]", "values": [{"measurement": "Plant response rating, Foxtail, Green", "setting": "[1]; [10]", "result": 50}, {"measurement": "Plant response rating, Foxtail, Green", "setting": "[1]; [11]", "result": 50}, {"measurement": "Plant response rating, Foxtail, Green", "setting": "[1]; [12]", "result": 70}, {"measurement": "Plant response rating, Foxtail, Green", "setting": "[1]; [13]", "result": 85}, {"measurement": "Plant response rating, Foxtail, Green", "setting": "[1]; [14]", "result": 90}, {"measurement": "Plant response rating, Foxtail, Green", "setting": "[1]; [15]", "result": 95}, {"measurement": "Plant response rating, Foxtail, Green", "setting": "[1]; [16]", "result": 95}, {"measurement": "Plant response rating, Foxtail, Green", "setting": "[1]; [17]", "result": 95}, {"measurement": "Plant response rating, Barley", "setting": "[2]; [18]", "result": 15}, {"measurement": "Plant response rating, Barley", "setting": "[2]; [19]", "result": 25}, {"measurement": "Plant response rating, Barley", "setting": "[2]; [20]", "result": 35}, {"measurement": "Plant response rating, Barley", "setting": "[2]; 250 g ai/ha, scale 0 to 100", "result": 40}, {"measurement": "Plant response rating, Canarygrass", "setting": "[3]; [18]", "result": 35}, {"measurement": "Plant response rating, Canarygrass", "setting": "[3]; [19]", "result": 50}, {"measurement": "Plant response rating, Canarygrass", "setting": "[3]; [20]", "result": 70}, {"measurement": "Plant response rating, Canarygrass", "setting": "[3]; 250 g ai/ha, scale 0 to 100", "result": 80}, {"measurement": "Plant response rating, Cocklebur", "setting": "[4]; [10]", "result": 35}, {"measurement": "Plant response rating, Cocklebur", "setting": "[4]; [11]", "result": 35}, {"measurement": "Plant response rating, Cocklebur", "setting": "[4]; [12]", "result": 40}, {"measurement": "Plant response rating, Cocklebur", "setting": "[4]; [13]", "result": 55}, {"measurement": "Plant response rating, Bromegrass, Downy", "setting": "[5]; [10]", "result": 30}, {"measurement": "Plant response rating, Bromegrass, Downy", "setting": "[5]; [11]", "result": 35}, {"measurement": "Plant response rating, Bromegrass, Downy", "setting": "[5]; [12]", "result": 40}, {"measurement": "Plant response rating, Bromegrass, Downy", "setting": "[5]; [13]", "result": 40}, {"measurement": "Plant response rating, Bromegrass, Downy", "setting": "[5]; [14]", "result": 0}, {"measurement": "Plant response rating, Bromegrass, Downy", "setting": "[5]; [21]", "result": 5}, {"measurement": "Plant response rating, Bromegrass, Downy", "setting": "[5]; [16]", "result": 40}, {"measurement": "Plant response rating, Bromegrass, Downy", "setting": "[5]; [17]", "result": 60}, {"measurement": "Plant response rating, Sunflower", "setting": "[6]; [24]", "result": 0}, {"measurement": "Plant response rating, Sunflower", "setting": "[6]; [20]", "result": 0}, {"measurement": "Plant response rating, Sunflower", "setting": "[6]; [23]", "result": 0}, {"measurement": "Plant response rating, Nightshade", "setting": "[7]; [22]", "result": 0}, {"measurement": "Plant response rating, Nightshade", "setting": "[7]; [24]", "result": 75}, {"measurement": "Plant response rating, Nightshade", "setting": "[7]; [20]", "result": 90}, {"measurement": "Plant response rating, Nightshade", "setting": "[7]; [23]", "result": 100}, {"measurement": "Plant response rating, Goosegrass", "setting": "[8]; [10]", "result": 10}, {"measurement": "Plant response rating, Goosegrass", "setting": "[8]; [11]", "result": 35}, {"measurement": "Plant response rating, Goosegrass", "setting": "[8]; [12]", "result": 45}, {"measurement": "Plant response rating, Goosegrass", "setting": "[8]; [13]", "result": 55}, {"measurement": "Plant response rating, Goosegrass", "setting": "[8]; [14]", "result": 80}, {"measurement": "Plant response rating, Goosegrass", "setting": "[8]; [15]", "result": 98}, {"measurement": "Plant response rating, Goosegrass", "setting": "[8]; [16]", "result": 98}, {"measurement": "Plant response rating, Goosegrass", "setting": "[8]; [17]", "result": 100}, {"measurement": "Plant response rating, Windgrass", "setting": "[9]; [18]", "result": 50}, {"measurement": "Plant response rating, Windgrass", "setting": "[9]; [19]", "result": 65}, {"measurement": "Plant response rating, Windgrass", "setting": "[9]; [20]", "result": 80}, {"measurement": "Plant response rating, Windgrass", "setting": "[9]; 250 g ai/ha, scale 0 to 100", "result": 85}]}
